In patent US11780893B2, “Kv1.3 blockers” (Zealand Pharma A/S, priority 2019, dated 2023) one finds IC50 data, which are given here for nine molecules.

Each structure is given as a SMILES string. Bridge positions count the residues as written; N and C are the ends. Square brackets hold non-standard residues; d marks the D form. Peptide text beside a SMILES is read from it. Nle = CCCC[C@H](N)C(=O)O

T1 sequence (P22001 whole entry): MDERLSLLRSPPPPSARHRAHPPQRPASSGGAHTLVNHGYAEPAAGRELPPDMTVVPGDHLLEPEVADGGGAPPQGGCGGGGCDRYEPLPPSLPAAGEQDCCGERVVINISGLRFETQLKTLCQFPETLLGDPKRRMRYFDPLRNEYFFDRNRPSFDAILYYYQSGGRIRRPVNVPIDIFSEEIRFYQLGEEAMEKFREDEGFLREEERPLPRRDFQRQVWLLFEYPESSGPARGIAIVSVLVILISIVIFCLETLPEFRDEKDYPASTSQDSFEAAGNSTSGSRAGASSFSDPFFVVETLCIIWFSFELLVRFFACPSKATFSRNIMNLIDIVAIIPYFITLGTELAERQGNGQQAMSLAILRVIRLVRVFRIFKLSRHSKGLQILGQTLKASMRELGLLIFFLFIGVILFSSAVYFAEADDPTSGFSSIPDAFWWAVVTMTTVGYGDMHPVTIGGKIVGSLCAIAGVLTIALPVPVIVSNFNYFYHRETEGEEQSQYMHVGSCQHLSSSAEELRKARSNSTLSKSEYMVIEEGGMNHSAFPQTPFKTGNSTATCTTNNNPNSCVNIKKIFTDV

The assay addresses T1, human Kv1.3 voltage-gated K+ channel (Homo sapiens, UniProt P22001).
T1 construct: host or cells: CHO-DUKX
As to the kind of experiment: cell-based. The settings on record: inhibition of thallium flux, CHO-DUKX cells with human Kv1.3; read-out: IC50.
On to `CCCC[C@@H]1NC(=O)[C@@H]2CSSC[C@H](NC(C)=O)C(=O)N[C@@H](CO)C(=O)N[C@@H](C)C(=O)N[C@@H](CO)C(=O)N[C@@H](C(C)C)C(=O)N[C@@H](CCC(=O)O)C(=O)N[C@H]3CSSC[C@H](NC(=O)[C@H](CCCCN)NC(=O)[C@H](CCCCN)NC(=O)[C@H](CC(N)=O)NC1=O)C(=O)N[C@@H](CCCCN)C(=O)N[C@H](C(=O)N[C@@H](Cc1ccc(O)cc1)C(=O)N1CCC[C@H]1C(=O)N[C@@H](CO)C(N)=O)CSSC[C@H](NC(=O)[C@H](CCCCN)NC(=O)[C@H](CCC(N)=O)NC(=O)[C@H](CCCCN)NC3=O)C(=O)N[C@@H](CC(C)C)C(=O)N[C@@H](CCCCN)C(=O)N[C@@H](C)C(=O)N[C@@H]([C@@H](C)CC)C(=O)NCC(=O)N[C@@H](CO)C(=O)N[C@@H]([C@@H](C)CC)C(=O)N[C@@H](Cc1ccccc1)C(=O)NCC(=O)N[C@@H](CCCCN)C(=O)N2` [Compound 109] (Ac-CSASVECKQKCLKAIGSIFGKC[Nle]NKKCKCYPS-NH2; disulfide 1-22, 7-27, 11-29), for which the IC50 (commonly the concentration that inhibits the measured activity by half) came out at 960 pM.

As to `CCCC[C@@H]1NC(=O)[C@@H]2CSSC[C@H](NC(C)=O)C(=O)N[C@@H](CO)C(=O)N[C@@H](C)C(=O)N[C@@H](CO)C(=O)N[C@@H](C(C)C)C(=O)N[C@@H](CCC(=O)O)C(=O)N[C@H]3CSSC[C@H](NC(=O)[C@H](CCCCN)NC(=O)[C@H](CCCCN)NC(=O)[C@H](CC(N)=O)NC1=O)C(=O)N[C@@H](CCCCN)C(=O)N[C@H](C(=O)N[C@@H](Cc1ccc(O)cc1)C(=O)N[C@@H](CO)C(N)=O)CSSC[C@H](NC(=O)[C@H](CCCCN)NC(=O)[C@H](CCC(N)=O)NC(=O)[C@H](CCCCN)NC3=O)C(=O)N[C@@H](CC(C)C)C(=O)N[C@@H](CCCCN)C(=O)N[C@@H](C)C(=O)N[C@@H]([C@@H](C)CC)C(=O)NCC(=O)N[C@@H](CO)C(=O)N[C@@H]([C@@H](C)CC)C(=O)N[C@@H](Cc1ccccc1)C(=O)NCC(=O)N[C@@H](CCCCN)C(=O)N2` [Compound 110] (Ac-CSASVECKQKCLKAIGSIFGKC[Nle]NKKCKCYS-NH2; disulfide 1-22, 7-27, 11-29), the half-inhibitory concentration (IC50) was determined as 2300 pM.

In the case of `CCCC[C@@H]1NC(=O)[C@@H]2CSSC[C@H](NC(C)=O)C(=O)N[C@@H](CO)C(=O)N[C@@H](C)C(=O)N[C@@H](CO)C(=O)N[C@@H](C(C)C)C(=O)N[C@@H](CCC(=O)O)C(=O)N[C@H]3CSSC[C@H](NC(=O)[C@H](CCCCN)NC(=O)[C@H](CCCCN)NC(=O)[C@H](CC(N)=O)NC1=O)C(=O)N[C@@H](CCCCN)C(=O)N[C@H](C(=O)N[C@@H](Cc1ccc(O)cc1)C(=O)NCC(N)=O)CSSC[C@H](NC(=O)[C@H](CCCCN)NC(=O)[C@H](CCC(N)=O)NC(=O)[C@H](CCCCN)NC3=O)C(=O)N[C@@H](CC(C)C)C(=O)N[C@@H](CCCCN)C(=O)N[C@@H](C)C(=O)N[C@@H]([C@@H](C)CC)C(=O)NCC(=O)N[C@@H](CO)C(=O)N[C@@H]([C@@H](C)CC)C(=O)N[C@@H](Cc1ccccc1)C(=O)NCC(=O)N[C@@H](CCCCN)C(=O)N2` [Compound 111] (Ac-CSASVECKQKCLKAIGSIFGKC[Nle]NKKCKCYG-NH2; disulfide 1-22, 7-27, 11-29), the half-maximal inhibitory concentration (IC50) is 2100 pM.

Regarding `CCCC[C@@H]1NC(=O)[C@@H]2CSSC[C@H](NC(C)=O)C(=O)N[C@@H](CO)C(=O)N[C@@H](C)C(=O)N[C@@H](CO)C(=O)N[C@@H](C(C)C)C(=O)N[C@@H](CCC(=O)O)C(=O)N[C@H]3CSSC[C@H](NC(=O)[C@H](CCCCN)NC(=O)[C@H](CCCCN)NC(=O)[C@H](CC(N)=O)NC1=O)C(=O)N[C@@H](CCCCN)C(=O)N[C@H](C(=O)N[C@@H](Cc1ccc(O)cc1)C(N)=O)CSSC[C@H](NC(=O)[C@H](CCCCN)NC(=O)[C@H](CCC(N)=O)NC(=O)[C@H](CCCCN)NC3=O)C(=O)N[C@@H](CC(C)C)C(=O)N[C@@H](CCCCN)C(=O)N[C@@H](C)C(=O)N[C@@H]([C@@H](C)CC)C(=O)NCC(=O)N[C@@H](CO)C(=O)N[C@@H]([C@@H](C)CC)C(=O)N[C@@H](Cc1ccccc1)C(=O)NCC(=O)N[C@@H](CCCCN)C(=O)N2` [Compound 112] (Ac-CSASVECKQKCLKAIGSIFGKC[Nle]NKKCKCY-NH2; disulfide 1-22, 7-27, 11-29), the IC50 turned out to be 1700 pM.

Regarding `CCCC[C@@H]1NC(=O)[C@@H]2CSSC[C@H](NC(=O)[C@H](CCCNC(=N)N)NC(C)=O)C(=O)N[C@@H](CO)C(=O)N[C@@H](C)C(=O)N[C@@H](CO)C(=O)N[C@@H](C(C)C)C(=O)N[C@@H](CCC(=O)O)C(=O)N[C@H]3CSSC[C@H](NC(=O)[C@H](CCCCN)NC(=O)[C@H](CCCCN)NC(=O)[C@H](CC(N)=O)NC1=O)C(=O)N[C@@H](CCCCN)C(=O)N[C@H](C(=O)N[C@@H](Cc1ccc(O)cc1)C(=O)N1CCC[C@H]1C(=O)N[C@@H](CCCNC(=N)N)C(=O)O)CSSC[C@H](NC(=O)[C@H](CCCCN)NC(=O)[C@H](CCC(N)=O)NC(=O)[C@H](CCCCN)NC3=O)C(=O)N[C@@H](CC(C)C)C(=O)N[C@@H](CCCCN)C(=O)N[C@@H](C)C(=O)N[C@@H]([C@@H](C)CC)C(=O)NCC(=O)N[C@@H](CO)C(=O)N[C@@H]([C@@H](C)CC)C(=O)N[C@@H](Cc1ccccc1)C(=O)NCC(=O)N[C@@H](CCCCN)C(=O)N2` [Compound 113] (Ac-RCSASVECKQKCLKAIGSIFGKC[Nle]NKKCKCYPR-OH; disulfide 2-23, 8-28, 12-30), the concentration for half-maximal inhibition (IC50) is 340 pM.

Take `CCCC[C@H](NC(=O)[C@@H]1CCCN1)C(=O)N[C@@H](CCC(=O)O)C(=O)N[C@@H](CCCC)C(=O)N[C@@H](CCCNC(=N)N)C(=O)N[C@H]1CSSC[C@@H]2NC(=O)[C@H](CCCCN)NC(=O)CNC(=O)[C@H](Cc3ccccc3)NC(=O)[C@H]([C@@H](C)CC)NC(=O)[C@H](CO)NC(=O)CNC(=O)[C@H]([C@@H](C)CC)NC(=O)[C@H](C)NC(=O)[C@H](C)NC(=O)[C@H](CC(C)C)NC(=O)[C@@H]3CSSC[C@@H](C(=O)N[C@@H](Cc4ccc(O)cc4)C(=O)N4CCC[C@H]4C(=O)N[C@@H](CCCNC(=N)N)C(=O)O)NC(=O)[C@H](CCCCN)NC(=O)[C@H](CSSC[C@H](NC(=O)[C@H](CCC(=O)O)NC(=O)[C@H](C(C)C)NC(=O)[C@H](CO)NC(=O)[C@H](C)NC(=O)[C@H](CO)NC1=O)C(=O)N[C@@H](CCCCN)C(=O)N[C@@H](CCC(=O)O)C(=O)N[C@@H](CCCCN)C(=O)N3)NC(=O)[C@H](CCCCN)NC(=O)[C@H](CCCCN)NC(=O)[C@H](CC(N)=O)NC(=O)[C@H](CCCC)NC2=O` [Compound 118] (H-P[Nle]E[Nle]RCSASVECKEKCLAAIGSIFGKC[Nle]NKKCKCYPR-OH; disulfide 6-27, 12-32, 16-34): the IC50 stood at 1390 pM.

As to `CCCC[C@@H]1NC(=O)[C@@H]2CSSC[C@H](NC(=O)[C@H](CCCNC(=N)N)NC(=O)[C@H](CCCC)NC(=O)[C@H](CCC(=O)O)NC(=O)[C@H](CCCC)NC(=O)[C@H]3CCCN3)C(=O)N[C@@H](CO)C(=O)N[C@@H](C)C(=O)N[C@@H](CO)C(=O)N[C@@H](C(C)C)C(=O)N[C@@H](CCC(=O)O)C(=O)N[C@H]3CSSC[C@H](NC(=O)[C@H](CCCCN)NC(=O)[C@H](CCCCN)NC(=O)[C@H](CC(N)=O)NC1=O)C(=O)N[C@@H](CCCCN)C(=O)N[C@H](C(=O)N[C@@H](Cc1ccc(O)cc1)C(=O)N1CCC[C@H]1C(=O)N[C@@H](CCCNC(=N)N)C(=O)O)CSSC[C@H](NC(=O)[C@H](CCCCN)NC(=O)[C@H](CCC(N)=O)NC(=O)[C@H](CCCCN)NC3=O)C(=O)N[C@@H](CC(C)C)C(=O)N[C@@H](C)C(=O)N[C@@H](C)C(=O)N[C@@H]([C@@H](C)CC)C(=O)NCC(=O)N[C@@H](CO)C(=O)N[C@@H]([C@@H](C)CC)C(=O)N[C@@H](Cc1ccccc1)C(=O)NCC(=O)N[C@@H](CCCCN)C(=O)N2` [Compound 119] (H-[dP][Nle]E[Nle]RCSASVECKQKCLAAIGSIFGKC[Nle]NKKCKCYPR-OH; disulfide 6-27, 12-32, 16-34), the IC50 amounted to 630 pM.

For `CCCC[C@H](NC(=O)[C@@H]1CCCN1)C(=O)N[C@@H](CCC(=O)O)C(=O)N[C@@H](CCCC)C(=O)N[C@@H](CCCNC(=N)N)C(=O)N[C@H]1CSSC[C@@H]2NC(=O)[C@H](CCCCN)NC(=O)CNC(=O)[C@H](Cc3ccccc3)NC(=O)[C@H]([C@@H](C)CC)NC(=O)[C@H](CO)NC(=O)CNC(=O)[C@H]([C@@H](C)CC)NC(=O)[C@H](C)NC(=O)[C@H](C)NC(=O)[C@H](CC(C)C)NC(=O)[C@@H]3CSSC[C@@H](C(=O)N[C@@H](Cc4ccc(O)cc4)C(=O)N[C@@H](CCCNC(=N)N)C(=O)O)NC(=O)[C@H](CCCCN)NC(=O)[C@H](CSSC[C@H](NC(=O)[C@H](CCC(=O)O)NC(=O)[C@H](C(C)C)NC(=O)[C@H](CO)NC(=O)[C@H](C)NC(=O)[C@H](CO)NC1=O)C(=O)N[C@@H](CCCCN)C(=O)N[C@@H](CCC(N)=O)C(=O)N[C@@H](CCCCN)C(=O)N3)NC(=O)[C@H](CCCCN)NC(=O)[C@H](CCCCN)NC(=O)[C@H](CC(N)=O)NC(=O)[C@H](CCCC)NC2=O` [Compound 120] (H-P[Nle]E[Nle]RCSASVECKQKCLAAIGSIFGKC[Nle]NKKCKCYR-OH; disulfide 6-27, 12-32, 16-34), the IC50 came out at 894 pM.

Take `CCCC[C@@H]1NC(=O)[C@@H]2CSSC[C@H](NC(=O)[C@H](CCCNC(=N)N)NC(=O)[C@H](CCCC)NC(=O)[C@H](CCC(=O)O)NC(=O)[C@@H](N)CCCC)C(=O)N[C@@H](CO)C(=O)N[C@@H](C)C(=O)N[C@@H](CO)C(=O)N[C@@H](C(C)C)C(=O)N[C@@H](CCC(=O)O)C(=O)N[C@H]3CSSC[C@H](NC(=O)[C@H](CCCCN)NC(=O)[C@H](CCCCN)NC(=O)[C@H](CC(N)=O)NC1=O)C(=O)N[C@@H](CCCCN)C(=O)N[C@H](C(=O)N[C@@H](Cc1ccc(O)cc1)C(=O)N1CCC[C@H]1C(=O)N[C@@H](CCCNC(=N)N)C(=O)O)CSSC[C@H](NC(=O)[C@H](CCCCN)NC(=O)[C@H](CCC(N)=O)NC(=O)[C@H](CCCCN)NC3=O)C(=O)N[C@@H](CC(C)C)C(=O)N[C@@H](C)C(=O)N[C@@H](C)C(=O)N[C@@H]([C@@H](C)CC)C(=O)NCC(=O)N[C@@H](CO)C(=O)N[C@@H]([C@@H](C)CC)C(=O)N[C@@H](Cc1ccccc1)C(=O)NCC(=O)N[C@@H](CCCCN)C(=O)N2` [Compound 121] (H-[Nle]E[Nle]RCSASVECKQKCLAAIGSIFGKC[Nle]NKKCKCYPR-OH; disulfide 5-26, 11-31, 15-33): the IC50 was found to be 451 pM.
